Test results as given in ChEMBL document CHEMBL4020733, “Approaches towards the development of chimeric DPP4/ACE inhibitors for treating metabolic syndrome” (Bioorg Med Chem Lett, 2017).

Experiments:
Dipeptidyl peptidase 8 = Dipeptidyl peptidase 8 (Homo sapiens, UniProt Q6V1X1); test: Inhibition of DPP8 (unknown origin)
[1] = AUC (0 to 24 hrs) in Wistar rat plasma at 30 mg/kg, po; type: ADME, organism-based; set-up: time < 24 hr, dose 30 mg/kg, route oral
Cytochrome P450 3A4 = Cytochrome P450 3A4 (Homo sapiens, UniProt P08684); test: Inhibition of CYP3A4 (unknown origin) up to 10 uM; type: ADME
[2] = target: T1, Angiotensin-converting enzyme (Mus musculus, UniProt P09470); test: Inhibition of ob/ob mouse plasma ACE
T1 sequence (P09470 whole entry): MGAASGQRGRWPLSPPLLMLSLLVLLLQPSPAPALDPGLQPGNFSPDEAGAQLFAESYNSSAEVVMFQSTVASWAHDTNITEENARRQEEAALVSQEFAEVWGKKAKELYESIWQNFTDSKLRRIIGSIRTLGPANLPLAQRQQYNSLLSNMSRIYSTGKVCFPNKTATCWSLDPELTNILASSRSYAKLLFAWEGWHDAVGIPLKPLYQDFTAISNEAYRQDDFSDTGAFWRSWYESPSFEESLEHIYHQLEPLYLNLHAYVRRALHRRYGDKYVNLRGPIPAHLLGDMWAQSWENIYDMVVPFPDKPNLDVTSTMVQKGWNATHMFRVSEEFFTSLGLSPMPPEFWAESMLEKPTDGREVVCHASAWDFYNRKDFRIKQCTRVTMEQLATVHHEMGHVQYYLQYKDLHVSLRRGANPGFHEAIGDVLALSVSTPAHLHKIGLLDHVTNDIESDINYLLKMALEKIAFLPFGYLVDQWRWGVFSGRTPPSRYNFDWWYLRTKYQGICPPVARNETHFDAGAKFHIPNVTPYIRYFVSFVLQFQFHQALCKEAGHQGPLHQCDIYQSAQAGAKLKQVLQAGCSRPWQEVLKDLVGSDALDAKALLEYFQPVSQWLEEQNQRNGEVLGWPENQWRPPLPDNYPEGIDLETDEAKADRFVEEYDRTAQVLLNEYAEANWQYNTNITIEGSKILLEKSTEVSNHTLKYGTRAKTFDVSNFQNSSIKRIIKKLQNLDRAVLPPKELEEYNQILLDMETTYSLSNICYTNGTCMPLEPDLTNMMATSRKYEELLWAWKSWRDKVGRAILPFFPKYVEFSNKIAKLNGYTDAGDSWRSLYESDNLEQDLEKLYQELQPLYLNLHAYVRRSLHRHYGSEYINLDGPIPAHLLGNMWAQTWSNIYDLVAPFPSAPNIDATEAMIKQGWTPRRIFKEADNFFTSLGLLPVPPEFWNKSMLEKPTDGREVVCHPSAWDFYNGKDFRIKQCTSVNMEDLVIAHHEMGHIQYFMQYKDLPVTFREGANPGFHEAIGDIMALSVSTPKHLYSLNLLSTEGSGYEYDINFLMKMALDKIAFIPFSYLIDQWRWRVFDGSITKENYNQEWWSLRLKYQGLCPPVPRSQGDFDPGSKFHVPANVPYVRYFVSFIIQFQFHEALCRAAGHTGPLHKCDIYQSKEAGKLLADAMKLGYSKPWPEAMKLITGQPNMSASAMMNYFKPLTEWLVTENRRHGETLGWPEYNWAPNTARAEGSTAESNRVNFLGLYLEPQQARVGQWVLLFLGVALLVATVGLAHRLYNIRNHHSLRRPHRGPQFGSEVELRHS

Neprilysin = Neprilysin (Homo sapiens, UniProt P08473); test: Inhibition of NEP (unknown origin)
Liver [3] = test: Stability in human liver microsomes; type: ADME, microsome
[4] = target: Angiotensin-converting enzyme (Homo sapiens, UniProt P12821); test: Inhibition of human plasma ACE
Aminopeptidase N = Aminopeptidase N (Homo sapiens, UniProt P15144); test: Inhibition of APN (unknown origin)
Liver [5] = test: Stability in rat liver microsomes; type: ADME, microsome
Dipeptidyl peptidase 4 = Dipeptidyl peptidase 4 (Homo sapiens, UniProt P27487); test: Inhibition of human plasma DPP4
Dipeptidyl peptidase 2 = Dipeptidyl peptidase 2 (Homo sapiens, UniProt Q9UHL4); test: Inhibition of DPP2 (unknown origin)
[6] = Plasma protein binding in mouse; type: ADME, cell-free; details: read-out: PPB (converted)
[7] = Tmax in Wistar rat plasma at 30 mg/kg, po; type: ADME, organism-based
Cytochrome P450 2D6 = Cytochrome P450 2D6 (Homo sapiens, UniProt P10635); test: Inhibition of CYP2D6 (unknown origin) up to 10 uM; type: ADME
[8] = AUC (0 to infinity) in Wistar rat plasma at 30 mg/kg, po; type: ADME, organism-based; set-up: dose 30 mg/kg, time infinity, route oral
Cytochrome P450 2C9 = Cytochrome P450 2C9 (Homo sapiens, UniProt P11712); test: Inhibition of CYP2C9 (unknown origin) up to 10 uM; type: ADME
[9] = Inhibition of APP (unknown origin); set-up: species or system Homo sapiens
Cytochrome P450 1A2 = target: T2, Cytochrome P450 1A2 (Homo sapiens, UniProt P05177); test: Inhibition of CYP1A2 (unknown origin) up to 10 uM; type: ADME
T2 sequence (P05177 whole entry): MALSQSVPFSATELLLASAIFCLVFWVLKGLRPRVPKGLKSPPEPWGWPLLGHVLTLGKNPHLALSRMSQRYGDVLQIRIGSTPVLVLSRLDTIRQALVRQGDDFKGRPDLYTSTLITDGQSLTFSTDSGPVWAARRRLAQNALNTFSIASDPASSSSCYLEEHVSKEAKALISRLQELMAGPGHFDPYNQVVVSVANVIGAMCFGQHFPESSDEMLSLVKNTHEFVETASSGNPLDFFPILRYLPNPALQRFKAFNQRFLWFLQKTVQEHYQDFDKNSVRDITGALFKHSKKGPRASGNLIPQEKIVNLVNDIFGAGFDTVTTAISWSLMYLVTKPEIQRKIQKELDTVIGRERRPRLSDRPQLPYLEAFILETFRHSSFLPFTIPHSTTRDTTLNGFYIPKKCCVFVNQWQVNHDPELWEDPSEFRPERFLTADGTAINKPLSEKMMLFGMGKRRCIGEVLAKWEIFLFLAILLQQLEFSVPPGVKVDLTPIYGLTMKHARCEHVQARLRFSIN

Sequence of Cytochrome P450 3A4 (P08684 whole entry): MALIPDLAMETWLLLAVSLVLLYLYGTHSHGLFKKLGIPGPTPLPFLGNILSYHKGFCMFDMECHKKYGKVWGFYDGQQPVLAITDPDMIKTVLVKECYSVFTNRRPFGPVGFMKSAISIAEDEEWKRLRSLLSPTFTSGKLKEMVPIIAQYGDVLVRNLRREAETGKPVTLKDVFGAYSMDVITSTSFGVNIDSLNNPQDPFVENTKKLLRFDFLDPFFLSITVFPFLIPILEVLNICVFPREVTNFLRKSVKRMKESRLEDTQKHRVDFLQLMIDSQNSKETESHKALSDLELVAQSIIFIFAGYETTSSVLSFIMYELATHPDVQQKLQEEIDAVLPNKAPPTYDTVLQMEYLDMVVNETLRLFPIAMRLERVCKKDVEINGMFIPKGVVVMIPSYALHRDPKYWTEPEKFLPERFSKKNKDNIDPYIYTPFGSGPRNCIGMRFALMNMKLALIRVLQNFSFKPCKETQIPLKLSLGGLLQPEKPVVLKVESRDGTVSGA
Sequence of Cytochrome P450 2D6 (P10635 whole entry): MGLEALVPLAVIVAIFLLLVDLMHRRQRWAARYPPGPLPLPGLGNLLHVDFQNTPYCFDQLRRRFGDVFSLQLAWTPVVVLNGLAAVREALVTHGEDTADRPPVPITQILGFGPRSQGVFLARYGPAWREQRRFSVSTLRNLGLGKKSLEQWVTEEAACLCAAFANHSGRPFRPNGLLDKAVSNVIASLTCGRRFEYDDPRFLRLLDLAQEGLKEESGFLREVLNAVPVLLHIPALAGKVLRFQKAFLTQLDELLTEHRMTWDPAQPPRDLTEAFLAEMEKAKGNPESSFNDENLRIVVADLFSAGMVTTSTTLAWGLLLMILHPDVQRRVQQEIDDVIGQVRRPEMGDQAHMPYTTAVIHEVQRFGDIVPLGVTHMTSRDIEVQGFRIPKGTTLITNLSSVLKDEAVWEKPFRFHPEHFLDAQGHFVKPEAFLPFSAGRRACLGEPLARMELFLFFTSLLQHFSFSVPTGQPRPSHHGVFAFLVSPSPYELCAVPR
Sequence of Dipeptidyl peptidase 8 (Q6V1X1 whole entry): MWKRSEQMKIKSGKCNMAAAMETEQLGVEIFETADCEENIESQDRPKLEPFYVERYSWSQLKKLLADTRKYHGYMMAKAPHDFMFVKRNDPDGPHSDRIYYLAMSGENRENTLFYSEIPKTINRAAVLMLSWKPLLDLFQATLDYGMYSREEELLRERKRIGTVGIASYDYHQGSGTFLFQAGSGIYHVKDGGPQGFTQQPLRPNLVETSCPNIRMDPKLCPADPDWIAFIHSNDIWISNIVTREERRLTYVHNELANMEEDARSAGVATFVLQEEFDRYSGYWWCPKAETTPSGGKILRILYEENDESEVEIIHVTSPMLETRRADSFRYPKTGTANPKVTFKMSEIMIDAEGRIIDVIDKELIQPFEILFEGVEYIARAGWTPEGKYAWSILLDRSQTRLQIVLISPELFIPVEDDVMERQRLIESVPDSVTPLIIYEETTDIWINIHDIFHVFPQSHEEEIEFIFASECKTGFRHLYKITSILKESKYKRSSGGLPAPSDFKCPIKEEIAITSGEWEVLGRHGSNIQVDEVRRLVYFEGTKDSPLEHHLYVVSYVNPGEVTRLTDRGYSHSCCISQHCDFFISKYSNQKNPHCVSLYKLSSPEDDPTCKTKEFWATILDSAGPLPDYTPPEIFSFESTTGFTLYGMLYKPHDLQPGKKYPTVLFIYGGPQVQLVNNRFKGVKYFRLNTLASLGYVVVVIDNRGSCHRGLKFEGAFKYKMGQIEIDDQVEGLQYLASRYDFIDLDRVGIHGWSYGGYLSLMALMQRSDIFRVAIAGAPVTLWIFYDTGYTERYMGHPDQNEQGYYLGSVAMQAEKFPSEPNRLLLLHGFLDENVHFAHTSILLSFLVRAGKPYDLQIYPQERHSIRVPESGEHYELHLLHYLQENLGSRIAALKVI
Sequence of Cytochrome P450 2C9 (P11712 whole entry): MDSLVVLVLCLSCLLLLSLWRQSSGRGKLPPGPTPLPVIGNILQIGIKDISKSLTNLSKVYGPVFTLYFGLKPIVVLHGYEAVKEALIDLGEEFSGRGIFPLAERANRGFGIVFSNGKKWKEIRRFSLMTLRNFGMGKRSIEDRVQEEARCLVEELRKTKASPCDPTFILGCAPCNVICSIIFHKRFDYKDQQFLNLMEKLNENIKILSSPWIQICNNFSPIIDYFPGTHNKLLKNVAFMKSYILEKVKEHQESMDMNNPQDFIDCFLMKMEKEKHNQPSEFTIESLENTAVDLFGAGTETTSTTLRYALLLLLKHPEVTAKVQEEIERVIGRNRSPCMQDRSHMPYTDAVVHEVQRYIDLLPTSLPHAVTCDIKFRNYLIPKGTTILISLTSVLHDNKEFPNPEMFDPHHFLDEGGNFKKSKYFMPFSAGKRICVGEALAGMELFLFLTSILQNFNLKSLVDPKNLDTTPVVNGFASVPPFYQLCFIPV
Sequence of Neprilysin (P08473 whole entry): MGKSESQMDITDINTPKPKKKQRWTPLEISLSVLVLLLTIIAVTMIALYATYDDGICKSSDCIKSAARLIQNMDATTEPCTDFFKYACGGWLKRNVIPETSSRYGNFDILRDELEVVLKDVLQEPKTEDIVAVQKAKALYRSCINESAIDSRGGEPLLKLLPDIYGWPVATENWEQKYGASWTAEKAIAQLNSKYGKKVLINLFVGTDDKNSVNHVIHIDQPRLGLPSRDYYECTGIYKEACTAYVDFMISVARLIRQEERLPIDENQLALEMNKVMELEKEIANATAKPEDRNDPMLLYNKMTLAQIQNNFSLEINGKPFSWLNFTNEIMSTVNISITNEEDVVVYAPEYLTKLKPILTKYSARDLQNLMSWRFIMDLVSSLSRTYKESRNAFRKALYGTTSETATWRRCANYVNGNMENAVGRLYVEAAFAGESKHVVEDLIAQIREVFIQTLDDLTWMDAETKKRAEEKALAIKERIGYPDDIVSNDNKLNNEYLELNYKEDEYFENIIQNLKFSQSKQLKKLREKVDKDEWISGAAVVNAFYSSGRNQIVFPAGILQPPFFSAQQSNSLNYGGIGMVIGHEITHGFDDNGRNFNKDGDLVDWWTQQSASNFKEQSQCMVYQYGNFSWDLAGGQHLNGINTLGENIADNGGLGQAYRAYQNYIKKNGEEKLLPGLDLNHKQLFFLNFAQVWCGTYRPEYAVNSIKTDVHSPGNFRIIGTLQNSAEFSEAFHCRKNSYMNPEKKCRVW
Sequence of Aminopeptidase N (P15144 whole entry): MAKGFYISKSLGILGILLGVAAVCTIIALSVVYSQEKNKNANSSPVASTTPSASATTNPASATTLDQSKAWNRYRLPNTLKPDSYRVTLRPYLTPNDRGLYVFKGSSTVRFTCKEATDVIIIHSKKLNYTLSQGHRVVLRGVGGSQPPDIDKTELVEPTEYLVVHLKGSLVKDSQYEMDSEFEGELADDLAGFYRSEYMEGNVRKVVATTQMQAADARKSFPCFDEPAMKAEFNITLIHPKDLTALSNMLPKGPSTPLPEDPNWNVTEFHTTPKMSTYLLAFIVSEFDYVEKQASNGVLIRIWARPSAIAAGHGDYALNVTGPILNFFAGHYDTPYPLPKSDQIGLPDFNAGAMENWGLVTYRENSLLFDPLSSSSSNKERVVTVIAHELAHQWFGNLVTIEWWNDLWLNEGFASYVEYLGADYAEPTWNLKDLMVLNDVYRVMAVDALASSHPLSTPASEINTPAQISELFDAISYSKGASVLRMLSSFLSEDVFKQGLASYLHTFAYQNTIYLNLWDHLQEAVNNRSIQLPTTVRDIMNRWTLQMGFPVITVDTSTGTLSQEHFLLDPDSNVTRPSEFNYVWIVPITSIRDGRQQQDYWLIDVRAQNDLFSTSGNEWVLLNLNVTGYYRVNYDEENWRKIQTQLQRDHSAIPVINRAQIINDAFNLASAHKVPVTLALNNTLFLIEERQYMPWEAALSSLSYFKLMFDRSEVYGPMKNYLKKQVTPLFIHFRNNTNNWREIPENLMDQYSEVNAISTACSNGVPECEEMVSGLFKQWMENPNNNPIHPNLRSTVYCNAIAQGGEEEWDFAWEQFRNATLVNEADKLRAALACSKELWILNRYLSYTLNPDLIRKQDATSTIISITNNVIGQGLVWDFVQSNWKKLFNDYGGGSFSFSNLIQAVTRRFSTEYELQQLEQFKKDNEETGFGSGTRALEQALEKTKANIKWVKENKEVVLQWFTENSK
Sequence of Dipeptidyl peptidase 4 (P27487 whole entry): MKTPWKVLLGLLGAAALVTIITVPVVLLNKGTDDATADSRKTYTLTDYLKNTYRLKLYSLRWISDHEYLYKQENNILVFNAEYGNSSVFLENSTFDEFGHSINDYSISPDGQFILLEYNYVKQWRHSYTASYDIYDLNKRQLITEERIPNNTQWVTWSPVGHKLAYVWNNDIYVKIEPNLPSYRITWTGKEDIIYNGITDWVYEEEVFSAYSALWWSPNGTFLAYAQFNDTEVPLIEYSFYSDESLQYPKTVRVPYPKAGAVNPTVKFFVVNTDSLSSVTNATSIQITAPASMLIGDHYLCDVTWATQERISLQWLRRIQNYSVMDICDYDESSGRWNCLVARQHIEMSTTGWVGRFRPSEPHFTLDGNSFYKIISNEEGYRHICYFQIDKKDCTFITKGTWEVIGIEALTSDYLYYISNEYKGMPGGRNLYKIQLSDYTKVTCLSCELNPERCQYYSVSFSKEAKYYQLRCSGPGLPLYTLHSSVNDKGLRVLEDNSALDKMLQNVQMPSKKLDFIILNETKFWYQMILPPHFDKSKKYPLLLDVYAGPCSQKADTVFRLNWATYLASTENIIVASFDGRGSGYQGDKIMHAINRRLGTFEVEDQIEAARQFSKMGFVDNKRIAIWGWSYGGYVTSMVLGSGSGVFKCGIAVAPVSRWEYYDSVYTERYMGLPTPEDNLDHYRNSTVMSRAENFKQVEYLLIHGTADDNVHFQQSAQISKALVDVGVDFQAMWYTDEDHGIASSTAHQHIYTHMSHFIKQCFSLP

Row | IC50 (Dipeptidyl peptidase 8) [nM] | AUC(0-t) at 24 h [1] [ng·h/mL] | inhibition (INH) (Cytochrome P450 3A4) | IC50 [2] [nM] | IC50 (Neprilysin) [nM] | Stability (Liver [3]) | IC50 [4] [nM] | IC50 (Aminopeptidase N) [nM] | Stability (Liver [5]) | IC50 (Dipeptidyl peptidase 4) [nM] | IC50 (Dipeptidyl peptidase 2) [nM] | fraction unbound [6] | Tmax [7] [h] | inhibition (INH) (Cytochrome P450 2D6) | AUC(0-inf) [8] [ng·h/mL] | inhibition (INH) (Cytochrome P450 2C9) | IC50 [9] [nM] | inhibition (INH) (Cytochrome P450 1A2) | SMILES
1 | 27000 | 610 | Not Active | 58 | > 100000 | Stable | 158 | > 100000 | Stable | 255 | > 100000 | 0.51 | 1.5 | Not Active | 1170 | Not Active | > 100000 | Not Active | C[C@H](N[C@@H](CCc1ccccc1)C(=O)O)C(=O)N1C[C@@H](NC(=O)C[C@H](N)Cc2cc(F)c(F)cc2F)C[C@H]1C(=O)O
2 | > 100000 | 13900 | Not Active | 2210 | > 100000 | Stable | 279 | > 100000 | Stable | 102 | > 100000 | 0.014 | 2 | Not Active | 16800 | Not Active | > 100000 | Not Active | CCCC[C@H](N[C@@H](CCc1ccccc1)C(=O)O)C(=O)N1C[C@@H](NC(=O)C[C@H](N)Cc2cc(F)c(F)cc2F)C[C@H]1C(=O)O
3 | 69000 | 2360 | Not Active | 100 | > 100000 | Stable | 8.6 to 8.9 | > 100000 | Stable | 57 | > 100000 | 0.129 | 1.67 | Not Active | 2860 | Not Active | > 100000 | Not Active | CC[C@H](N[C@@H](CCc1ccccc1)C(=O)O)C(=O)N1C[C@@H](NC(=O)C[C@H](N)Cc2cc(F)c(F)cc2F)C[C@H]1C(=O)O
4 | 57000 | 21500 | Not Active | 2020 | > 100000 | Stable | 51 | > 100000 | Stable | 67 | > 100000 | 0.015 | 3.3 | Not Active | 23500 | Not Active | > 100000 | Not Active | CCC[C@H](N[C@@H](CCc1ccccc1)C(=O)O)C(=O)N1C[C@@H](NC(=O)C[C@H](N)Cc2cc(F)c(F)cc2F)C[C@H]1C(=O)O
